Test results: patent US7479478B2, “Human parathyroid hormone modifications, preparation and use” (The General Hospital Corporation, priority 1998, dated 2009)
No end group written: not given here.

Target: T1, rat PTH-1 receptors (Rattus norvegicus, UniProt P25961)
T1 construct: expressed in transfected cells
T1 sequence (P25961 27-591): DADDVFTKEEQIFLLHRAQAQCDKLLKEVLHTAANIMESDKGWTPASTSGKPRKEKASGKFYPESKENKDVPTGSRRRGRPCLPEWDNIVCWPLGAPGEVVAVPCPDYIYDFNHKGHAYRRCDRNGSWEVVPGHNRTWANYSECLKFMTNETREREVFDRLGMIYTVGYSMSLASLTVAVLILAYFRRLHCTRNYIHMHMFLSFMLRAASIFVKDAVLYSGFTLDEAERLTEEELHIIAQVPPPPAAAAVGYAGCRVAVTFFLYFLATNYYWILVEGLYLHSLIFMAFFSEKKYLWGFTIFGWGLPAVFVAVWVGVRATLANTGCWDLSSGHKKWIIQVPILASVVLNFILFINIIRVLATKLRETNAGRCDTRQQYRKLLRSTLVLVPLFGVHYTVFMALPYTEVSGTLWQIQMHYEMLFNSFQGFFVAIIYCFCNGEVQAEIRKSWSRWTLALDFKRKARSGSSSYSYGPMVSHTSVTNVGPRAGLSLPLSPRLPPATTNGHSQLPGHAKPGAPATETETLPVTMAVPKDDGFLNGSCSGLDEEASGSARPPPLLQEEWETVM
Assay: Radioligand binding in EW5 cells
Settings: compared with human PTH-1 receptor
Procedure: HKRK B7 or EW5 cells (32), subclones of LLC-PKI renal epithelial cells that stably express human or rat PTH-1 receptors (950,000 and 320,000 receptors/cell, respectively), were maintained under 5% CO2 in air in Dulbecco's modified essential medium containing 7% fetal bovine serum (FBS) and 1% penicillin/streptomycin (GIBCO-BRL, Grand Island, N.Y.). HEK-293 and COS-7 cells were cultured similarly, except that 10% FBS was used in the medium. Cells were seeded into 24-well plates two days before assay at a density of 2-2.5×10^5 cells/well (HKRK B7 or EW 5 cells) or 6×10^5 cells/well (in 6-well plates) (HEK-293 cells). In experiments involving HEK-293 cells, DNA transfections were performed 24 hr after plating and inositol radiolabel was added 24 hr thereafter (see below). COS-7 cell transfections were performed as previously described (Gardella, T. J., et al., Endocrinology 132(5):2024-2030 (1993))
Radioligand competition binding assays were performed at 2-8° C. for 6 hr using ^125I-[Nle^8,21, Tyr^34]rat PTH-(1-34) (100,000 cpm/well) in the presence or absence of non-radioactive hPTH-(1-34) analogs. Cell layers were washed three times before solubilization for determination of cell-associated radioactivity. […]

binding affinity for rat PTH-1 receptor, result in words: comparable
Substance: SVSEIQLMHNLGKHLNSMERVEWLRKKL-NH2 [hPTH-(1-28)]
